According to patent US11897856B1, “N-(Naphthalen-1-ylcarbamothioyl)furan-2-carboxamide as an eco-friendly insecticidal agent against Spodoptera littoralis (boisd.)” (KING FAISAL UNIVERSITY, priority 2023, dated 2024):
In brackets after ≈: the same amount, converted by molar mass. Where two headings read alike, the source gives them in different places.

System: Spodoptera littoralis
Assay: Insecticidal bioassay screening (castor leaf dip, larval mortality)
Assay type: in vivo
Conditions: for Toxicity index %: 72 hrs, Diflubenzuron's LC50/compound's LC50 x 100; for LC90 (mg/L) at 95%: after 72 hrs of treatment; for LC50: Spodoptera littoralis, in Gossypium hirsutum, foliar
Procedure: Five concentrations (200, 100, 50, 25, 12.5 ppm) were designed for this synthetic compound and the reference Diflubenzuron compound as the dynamic ingredients based on ppm via diluting the commercial formulation.
In this experiment, castor leaves are immersed in each of the previously prepared concentrations of the components for 10 seconds and then left to dry for 60 minutes. Larvae of the second and fourth instars of each checked strain are prepared with treated leaves in gauze-covered glass containers for 72 hrs. An untreated control is made in which leaves are dipped in triton x-100 and distilled water only. Then the preserved leaves were removed & fresh, untreated leaves were provided for 72 hours. Three replicates (10 larvae each) were checked for each concentration. Daily inspection was carried out for all treatments and mortality percentages were recorded 3 days (72 hours) after treatment. The average mortality percentage was corrected employing Abbott's formula. The corrected mortality rate for each of the previously synthesized compounds is statistically calculated according to Finney (1970). Through this rate, the corresponding concentration test lines (LDP lines) are assessed.

[1] = against Spodoptera littoralis under laboratory conditions, instar not stated
[2] = 72 h, read-out: LC50 (mg/L) at 95%, 2nd instar larvae, after 72 hrs of treatment
[3] = 72 h, read-out: LC50 (mg/L) at 95%, 4th instar larvae, after 72 hrs of treatment

| Structure (SMILES) | Toxicity index % (2nd instar larvae) [%] | LC90 (mg/L) at 95% (2nd instar larvae) [mg/L] | Toxicity index % (4th instar larvae) [%] | LC90 (mg/L) at 95% (4th instar larvae) [mg/L] | LC50 [1] [mg/L] | Insecticidal activity (in words) (against Spodoptera littoralis, compared with Diflubenzuron) | LC50 (mg/L) at 95% (in vivo) [mg/L] | LC50 [2] [mg/L] | LC50 [3] [mg/L] |
| --- | --- | --- | --- | --- | --- | --- | --- | --- | --- |
| O=C(NC(=S)Nc1cccc2ccccc12)c1ccco1 [Compound 2, N-(Naphthalen-1-ylcarbamothioyl)furan-2-carboxamide] | 11.3 | 3612.2 (≈ 12200 µM) | 12.9 | 1727.9 (≈ 5830 µM) | 400 (≈ 1350 µM) | active against Spodoptera littoralis | 1211.2 (≈ 4090 µM) |  |  |
| O=C(NC(=O)c1c(F)cccc1F)Nc1ccc(Cl)cc1 [Diflubenzuron, reference compound] | 100 | 520.0 (≈ 1670 µM) | 100 | 1540.5 (≈ 4960 µM) | 45.2 (≈ 145 µM) |  |  | 45.2 (≈ 145 µM) | 144 (≈ 464 µM) |
| O=C(NC(=S)Nc1cccc2ccccc12)c1ccco1 [N-(Naphthalen-1-ylcarbamothioyl)furan-2-carboxamide] |  |  |  |  |  |  |  | ~400 (≈ 1350 µM) | ~1210 (≈ 4090 µM) |
